These results are taken from the supplement of paper PMC12317010.

A short description of this data set: collision cross section in nitrogen (drift tube, single-field); higher = larger gas-phase ion size.
Where [1] appears, read: ion type: [M+H], ion source: ESI, ion mode: Positive.
Setting [2] is: ion type: [M-H], ion source: ESI, ion mode: Negative.
The mark [3] stands for this setting: ion type: [M+Na], ion source: ESI, ion mode: Positive.
[4] abbreviates: ion type: [M+H], ion source: APCI, ion mode: Positive.
The mark [5] stands for this setting: ion type: [M+], ion source: APCI, ion mode: Positive.

Each structure is given as a SMILES string. Counter-ions that a name gives are not always drawn.
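Also: chemical standards at 10 µM analysed by drift tube IMS-QTOF MS in about 3.95 torr nitrogen, mean of duplicate injections differing ≤1%, mass error below 10 ppm.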

On to `O=C(Nc1ccc2c(O)c(N=Nc3ccc(N=Nc4ccc(S(=O)(=O)O)cc4)cc3)c(S(=O)(=O)O)cc2c1)c1ccccc1` [C.I. Direct Red 81 disodium salt], for which the “collision cross section in nitrogen” value reads like this: under setting [1], 276.7 Å²; under setting [2], 283.1 Å².

For `CCOc1ccc(N=Nc2ccc(C=Cc3ccc(N=Nc4ccc(OCC)cc4)cc3S(=O)(=O)O)c(S(=O)(=O)O)c2)cc1` [C.I. Direct Yellow 12], the “collision cross section in nitrogen” value is, setting by setting: under setting [1], 278.7 Å²; under setting [3], 286.9 Å²; under setting [2], 279.3 Å².

With `COc1cc(-c2ccc(N)c(OC)c2)ccc1N` [C.I. Disperse Black 6 dihydrochloride], the “collision cross section in nitrogen” value reads like this: under setting [4], 169.7 Å²; under setting [1], 169.9 Å²; under setting [5], 156.1 Å².

Turning to `COc1cc(-c2ccc(N)c(OC)c2)ccc1N` [C.I. Disperse Black 6], the “collision cross section in nitrogen” value under setting [4] is 170.4 Å², the “collision cross section in nitrogen” value under setting [1] is 170 Å² and the “collision cross section in nitrogen” value under setting [5] is 156.6 Å².

For `CNc1ccc(NCCO)c2c1C(=O)c1ccccc1C2=O` [C.I. Disperse Blue 3], the “collision cross section in nitrogen” value worked out at 167.2 Å² under setting [4] and 167.5 Å² under setting [1].

Turning to `O=C1c2c(O)ccc(Nc3ccc(CCO)cc3)c2C(=O)c2c([N+](=O)[O-])ccc(O)c21` [C.I. Disperse Blue 27], the “collision cross section in nitrogen” value is 189.9 Å² under setting [3] and 201.7 Å² under setting [2].

For `CCN(CCC#N)c1ccc(N=Nc2ccc([N+](=O)[O-])cc2)cc1` [C.I. Disperse Orange 25], the “collision cross section in nitrogen” value is on record as 188.5 Å² under setting [4], 188.8 Å² under setting [1] and 189.8 Å² under setting [3].

As to `CCN(CCC#N)c1ccc(N=Nc2c(Cl)cc([N+](=O)[O-])cc2Cl)cc1` [C.I. Disperse Orange 37], the “collision cross section in nitrogen” value stood at 197.8 Å² under setting [4] and 197.9 Å² under setting [1].

Turning to `Nc1c(Oc2ccccc2)cc(O)c2c1C(=O)c1ccccc1C2=O` [C.I. Disperse Red 60], the “collision cross section in nitrogen” value is, setting by setting: under setting [4], 177.7 Å²; under setting [1], 178 Å²; under setting [5], 172.6 Å²; under setting [2], 175.8 Å².

For `CC(=O)Nc1ccc(N=Nc2cc(C)ccc2O)cc1` [C.I. Disperse Yellow 3], the “collision cross section in nitrogen” value under setting [4] is listed as 167.8 Å², the “collision cross section in nitrogen” value under setting [1] turned out to be 168.2 Å² and the “collision cross section in nitrogen” value under setting [2] turned out to be 168.7 Å².

In the case of `O=C1c2ccccc2C(=O)C1c1nc2ccccc2c(Br)c1O` [C.I. Disperse Yellow 64], the “collision cross section in nitrogen” value is reported as 167.5 Å² under setting [4] and 171.5 Å² under setting [2].

Turning to `O=S(=O)(O)c1cc(Nc2nc(Nc3ccccc3)nc(N(CCO)CCO)n2)ccc1C=Cc1ccc(Nc2nc(Nc3ccccc3)nc(N(CCO)CCO)n2)cc1S(=O)(=O)O` [C.I. Fluorescent Brightener 28, disodium salt], the “collision cross section in nitrogen” value under setting [1] was 307.5 Å² and the “collision cross section in nitrogen” value under setting [2] is listed as 282.8 Å².

Turning to `CC(=O)Nc1ccc(N=Nc2c(S(=O)(=O)O)cc3cc(S(=O)(=O)O)cc(NC(C)=O)c3c2O)cc1` [C.I. Food Red 11], under setting [2], the “collision cross section in nitrogen” value is 231.8 Å².

`Cc1ccc([N+](=O)[O-])cc1N=Nc1c(O)c(C(=O)Nc2ccccc2)cc2ccccc12` [C.I. Pigment Red 22]: the “collision cross section in nitrogen” value under setting [2] was 207 Å².

As to `Cc1cc(N=Nc2c(O)ccc3ccccc23)c(S(=O)(=O)O)cc1Cl` [C.I. Pigment Red 53], under setting [2], the “collision cross section in nitrogen” value is 187.2 Å².

For `Cc1ccc2[nH]c3cc4c(=O)c5cc(C)ccc5[nH]c4cc3c(=O)c2c1` [C.I. Pigment Red 122], the “collision cross section in nitrogen” value is listed as 183.4 Å² under setting [4] and 185.7 Å² under setting [2].
